# Patent US20110070190A1 (Roche Palo Alto LLC, priority 2009, published 2011)
# Target: T1, HCV polymerase (NS5B570n-Con1) (Hepatitis C virus genotype 1b, UniProt Q9WMX2)
# T1 construct: a 21 amino acid C-terminal deletion of full-length HCV polymerase; made in house; host or cells: E. coli BL21(DE3) pLysS, plasmid pET17b
# Test: HCV NS5B RNA polymerase activity (incorporation of radiolabeled nucleotide into acid insoluble RNA)
# Format: biochemical, HCV Con1 strain
# Method: The enzymatic activity of HCV polymerase (NS5B570n-Con1) was measured as the incorporation of radiolabeled nucleotide monophosphates into acid insoluble RNA products. Unincorporated radiolabeled substrate was removed by filtration and scintillant was added to the washed and dried filter plate containing radiolabeled RNA product. The amount of RNA product generated by NS5B570n-Con1 at the end of the reaction was directly proportional to the amount of light emitted by the scintillant.
# The HCV polymerase used in the enzymatic activity assay is a 21 amino acid C-terminal deletion of full-length HCV polymerase derived from HCV Con1 strain, genotype 1b (GenBank accession number AJ242654) (NS5B570n-Con1). The NS5B570n-Con1 was sub-cloned downstream to the T7 promoter of the plasmid expression construct pET17b and transformed into E. coli strain BL21(DE3) pLysS for protein expression. A single colony was used to start an innoculum for a 10 L culture in LB media supplemented with 100 μg/mL ampicillin at 37° C. Protein expression was induced by the addition of 0.25 mM isopropyl-β-D-thiogalactopyranoside (IPTG) when the optical density of the culture at […] was 0.8. Induction of protein expression was carried out at 30° C. for 16 h after which the cells were harvested by centrifugation. NS5B570n-Con1 was purified to homogeneity using a three-column purification protocol including subsequent column chromatography on Ni-NTA, SP-Sepharose HP and Superdex 75 resins.
# Enzymatic reactions in the presence of cIRES RNA template (see paragraph [00213]) contained 20 nM cIRES RNA, 20 nM NS5B570n-Con1 enzyme, 0.5 μCi of tritiated UTP (Perkin Elmer catalog no. TRK-412; specific activity: 30 to 60 Ci/mmol;), 1 μM each ATP, CTP, and GTP, 40 mM Tris-HCl pH 8.0, 40 mM NaCl, 4 mM DTT (dithiothreitol), 4 mM MgCl2, 5 μl of compound serial diluted in DMSO, and nuclease-free water to a final reaction volume of 50 μl. Enzymatic reactions in the presence of poly A RNA template (see paragraph [00213]) contained 20 nM Poly A:oligo(rU)16 premixed (see section 0004), 20 nM NS5B570n-Con1 enzyme, 1 μCi of tritiated UTP (Perkin Elmer catalog no. TRK-412; specific activity: 30 to 60 Ci/mmol), 40 mM Tris-HCl pH 8.0, 40 mM NaCl, 4 mM DTT (dithiothreitol), 4 mM MgCl2, 5 μl of compound serial diluted in DMSO, and nuclease-free water to a final reaction volume of 50 μl. Reaction mixtures were assembled in 96-well filter plates (cat #MADVN0B, Millipore Co.) and incubated for 2 h at 30° C. Reactions were stopped by addition of 10% final (v/v) trichloroacetic acid and incubated for 40 min at 4° C. Reactions were filtered, washed with 8 reaction volumes of 10% (v/v) trichloroacetic acetic acid, 4 reaction volumes of 70% (v/v) ethanol, air dried, and 25 μl of scintillant (Microscint 20, Perkin-Elmer) was added to each reaction well.
# Two RNA templates were used to assay compounds described herein. The cIRES RNA template was 377 nucleotide long and consisted of a partial complementary sequence (36 nucleotides) of the core protein, followed by 341 nucleotide of the complementary sequence of the internal ribosome entry site. The poly A RNA template (GE Amersham catalog number 27-4110) was a homopolymeric RNA pre-annealed to a oligo(rU)16 primer at a molar ratio of 3-to-1 (primer-template).
# The amount of light emitted from the scintillant was converted to counts per minute (CPM) on a Topcount® plate reader (Perkin-Elmer, Energy Range: Low, Efficiency Mode: Normal, Count Time: 1 min, Background Subtract: none, Cross talk reduction: Off).
# Data was analyzed in Excel® (Microsoft®) and ActivityBase® (Idbs®). The reaction in the absence of enzyme was used to determine the background signal, which was subtracted from the enzymatic reactions. Positive control reactions were performed in the absence of compound, from which the background corrected activity was set as 100% polymerase activity. All data was expressed as a percentage of the positive control. […]
row,Structure (SMILES),IC50 [nM]
1,"Cc1ccc(C(=O)Nc2ccc(-c3cc4c(s3)c(=O)ncn4Cc3ccc(Cl)cc3)cc2)o1 [Compound I-3, 5-Methyl-furan-2-carboxylic acid {4-[1-(4-chloro-benzyl)-4-oxo-1,4-dihydro-thieno[3,2-d]pyrimidin-6-yl]-phenyl}-amide]",9
2,"Nc1nccc(-c2ccc(-c3cc4c(s3)c(=O)ncn4Cc3ccc(Cl)cc3)cc2)n1 [Compound I-10, 6-[4-(2-Amino-pyrimidin-4-yl)-phenyl]-1-(4-chloro-benzyl)-1H-thieno[3,2-d]pyrimidin-4-one]",29
3,"CC(=O)Nc1ccc(-c2cc3c(s2)c(=O)ncn3Cc2ccc(Cl)cc2)cc1 [Compound I-37, N-{4-[1-(4-Chloro-benzyl)-4-oxo-1,4-dihydro-thieno[3,2-d]pyrimidin-6-yl]-phenyl}-acetamide]",586
4,"O=C(Nc1ccc(-c2cc3c(s2)c(=O)ncn3Cc2ccc(Cl)cc2)cc1)c1cc(F)ccc1F [Compound I-7, N-{4-[1-(4-Chloro-benzyl)-4-oxo-1,4-dihydro-thieno[3,2-d]pyrimidin-6-yl]-phenyl}-2,5-difluoro-benzamide]",21
5,"O=C(Nc1ccc(-c2cc3c(s2)c(=O)ncn3Cc2ccc(Cl)cc2)cc1)c1ccc(O)cn1 [Compound I-46, 5-Hydroxy-pyridine-2-carboxylic acid, {4-[1-(4-chloro-benzyl)-4-oxo-1,4-dihydro-thieno[3,2-d]pyrimidin-6-yl]-phenyl}-amide]",17
6,"O=C(Nc1ccc(-c2cc3c(s2)c(=O)ncn3Cc2ccc(Cl)cc2)cc1)c1ccccn1 [Compound I-39, Pyridine-2-carboxylic acid {4-[1-(4-chloro-benzyl)-4-oxo-1,4-dihydro-thieno[3,2-d]pyrimidin-6-yl]-phenyl}-amide]",5
7,"O=C(Nc1ccc(-c2cc3c(s2)c(=O)ncn3Cc2ccc(Cl)cc2)cc1)N1CCCC1 [Compound I-54, Pyrrolidine-1-carboxylic acid {4-[1-(4-chloro-benzyl)-4-oxo-1,4-dihydro-thieno[3,2-d]pyrimidin-6-yl]-phenyl}-amide]",76
8,"Nc1nccc(C(=O)Nc2ccc(-c3cc4c(s3)c(=O)ncn4Cc3ccc(Cl)cc3)cc2)n1 [Compound I-8, 2-Amino-pyrimidine-4-carboxylic acid {4-[1-(4-chloro-benzyl)-4-oxo-1,4-dihydro-thieno[3,2-d]pyrimidin-6-yl]-phenyl}-amide]",26
9,"Cc1cc(N)n2nc(-c3ccc(-c4cc5c(s4)c(=O)ncn5C[C@H]4CC[C@@H](C)CC4)cc3Cl)cc2n1 [Compound I-4, 6-[4-(7-amino-5-methyl-pyrazolo[1,5-a]pyrimidin-2-yl)-3-chloro-phenyl]-1-(4-methyl-cyclohexylmethyl)-1H-thieno[3,2-d]pyrimidin-4-one]",10
10,"Cc1cc(C(=O)Nc2ccc(-c3cc4c(s3)c(=O)ncn4Cc3ccc(Cl)cc3)cc2)n[nH]1 [Compound I-15, 5-Methyl-1H-pyrazole-3-carboxylic acid {4-[1-(4-chloro-benzyl)-4-oxo-1,4-dihydro-thieno[3,2-d]pyrimidin-6-yl]-phenyl}-amide]",70
11,"O=C(Nc1ccc(-c2cc3c(s2)c(=O)ncn3Cc2ccc(Cl)cc2)cc1F)c1ccccc1 [Compound I-14, N-{4-[1-(4-Chloro-benzyl)-4-oxo-1,4-dihydro-thieno[3,2-d]pyrimidin-6-yl]-2-fluoro-phenyl}-benzamide]",69
12,"Cc1ccc(Cn2cnc(=O)c3sc(-c4ccc(CO)cc4)cc32)cc1 [Compound I-53, 6-(4-Hydroxymethyl-phenyl)-1-(4-methyl-benzyl)-1H-thieno[3,2-d]pyrimidin-4-one]",560
13,"Cc1nnc(-c2ccc(-c3cc4c(s3)c(=O)ncn4Cc3ccc(Cl)cc3)cc2)o1 [Compound I-33, 1-(4-Chloro-benzyl)-6-[4-(5-methyl-[1,3,4]oxadiazol-2-yl)-phenyl]-1H-thieno[3,2d]pyrimidin-4-one]",390
14,"O=C(Nc1ccc(-c2cc3c(s2)c(=O)ncn3Cc2ccc(Cl)cc2)cn1)c1ccccn1 [Compound I-41, Pyridine-2-carboxylic acid {5-[1-(4-chloro-benzyl)-4-oxo-1,4-dihydro-thieno[3,2-d]pyrimidin-6-yl]-pyridin-2-yl}-amide]",62
15,Cc1ccc(Cn2cnc(=O)c3sc(-c4ccc(-c5ccccc5)cc4)cc32)cc1 [Compound I-13],45
16,"O=c1ncn(Cc2ccc(Cl)cc2)c2cc(-c3ccc(NCc4ccccc4)cc3)sc12 [Compound I-49, 6-(4-Benzylamino-phenyl)-1-(4-chloro-benzyl)-1H-thieno[3,2-d]pyrimidin-4-one]",377
17,CC(C)C(=O)Nc1ccc(-c2cc3c(s2)c(=O)ncn3Cc2ccc(Cl)cc2)cc1F [Compound I-55],1790
18,"COc1ccc(COc2ccc(-c3cc4c(s3)c(=O)ncn4Cc3ccc(Cl)cc3)cc2)cc1 [Compound I-11, 1-(4-chloro-benzyl)-6-[4-(4-methoxy-benzyloxy)-phenyl]-1H-thieno[3,2-d]pyrimidin-4-one]",32
19,"O=C(Nc1ccccc1)c1ccc(-c2cc3c(s2)c(=O)ncn3Cc2ccc(Cl)cc2)cc1 [Compound I-47, 4-[1-(4-Chloro-benzyl)-4-oxo-1,4-dihydro-thieno[3,2-d]pyrimidin-6-yl]-N-phenyl-benzamide]",~40
20,"O=C(Nc1ccc(-c2cc3c(s2)c(=O)ncn3Cc2ccc(Cl)cc2)cc1Cl)c1ccccn1 [Compound I-1, Pyridine-2-carboxylic acid {2-chloro-4-[1-(4-chloro-benzyl)-4-oxo-1,4-dihydro-thieno[3,2-d]pyrimidin-6-yl]-phenyl}-amide]",2
21,"Cc1cc(N)n2nc(-c3ccc(-c4cc5c(s4)c(=O)ncn5C[C@H]4CC[C@H](C)CC4)cn3)cc2n1 [Compound I-43, 6-[6-(7-Amino-5-methyl-pyrazolo[1,5-a]pyrimidin-2-yl)-pyridin-3-yl]-1-(4-methyl-cyclohexylmethyl)-1H-thieno[3,2-d]pyrimidin-4-one]",428
22,"O=c1ncn(Cc2ccc(Cl)cc2)c2cc(-c3ccc(SCc4ccccc4)cc3)sc12 [Compound I-20, 6-(4-Benzylsulfanyl-phenyl)-1-(4-chloro-benzyl)-1H-thieno[3,2-d]pyrimidin-4-one]",104
23,"O=c1ncn(Cc2ccc(Cl)cc2)c2cc(-c3ccc(Oc4ccccc4)cc3)sc12 [Compound I-24, 1-(4-Chloro-benzyl)-6-(4-phenoxy-phenyl)-1H-thieno[3,2-d]pyrimidin-4-one]",150
24,O=c1ncn(Cc2ccc(Cl)cc2)c2cc(-c3ccc(NCc4ccccn4)cc3)sc12 [Compound I-23],139
25,O=c1ncn(Cc2ccc(Cl)cc2)c2cc(-c3ccc(SCc4ccncc4)cc3)sc12 [Compound I-59],167
26,"O=C(CCCO)Nc1ccc(-c2cc3c(s2)c(=O)ncn3Cc2ccc(Cl)cc2)cc1Cl [Compound I-30, N-{2-Chloro-4-[1-(4-chloro-benzyl)-4-oxo-1,4-dihydro-thieno[3,2-d]pyrimidin-6-yl]-phenyl}-4-hydroxy-butyramide]",279
27,"CCCCOc1ccc(-c2cc3c(s2)c(=O)ncn3Cc2ccc(Cl)cc2)cc1Cl [Compound I-25, 6-(4-Butoxy-3-chloro-phenyl)-1-(4-chloro-benzyl)-1H-thieno[3,2-d]pyrimidin-4-one]",155
